{"source": "patent US10538099B2", "about": "“Inkjet recording apparatus, printer, and method for manufacturing cured product” (Ricoh Company, Ltd., priority 2016, dated 2020)", "key": {"[1]": {"details": "evaluated by a test method based on OECD Test Guideline 406 in MSDS; cited from earlier work"}, "[2]": {"tested_on": "female mice", "experiment": "Skin sensitization test according to the LLNA (Local Lymph Node Assay), BrdU intake", "format": "in vivo", "details": "test substance 50.0 w/v % in acetone/olive oil 4/1, 25 μL/auricle once a day for three days; SI less than 3 = negative in skin sensitizing property", "protocol": "Stimulus index (SI) was measured by a skin sensitization test according to the LLNA (Local Lymph Node Assay) as follows.\nAs a positive control, α-hexyl cinnamaldehyde (HCA, product of Wako Pure Chemical Industries, Ltd.) was used.\nAs a medium, a mixture liquid of acetone (product of Wako Pure Chemical Industries, Ltd.) and olive oil (product of Fudimi Pharmaceutical Co., Ltd.) in a volume ratio of 4/1 was used.\nBefore treated with the test materials, the positive control, or the medium control, female mice were acclimated for 8 days including 6-day quarantine. No abnormalities were found in all the mice (used animals) during the quarantine/acclimation period.\nBased on the body weights measured 2 days before the initiation of sensitization, they were categorized into 2 groups (4 mice/group) by the body weight stratified random sampling method so that the body weight of each individual was within ±20% of the average body weight of all the individuals. Each of the used animals was 8 weeks old to 9 weeks old at the time of the initiation of sensitization. […]\nAbout 24 hours after the administration of BrdU, the used animals were allowed to undergo euthanasia, and their auricular lymph nodes were sampled. […] Also, the average of the weights of the auricular lymph nodes and the standard error thereof were calculated for each group. […]"}, "[3]": {"details": "evaluated by Maximization test method according to the document; cited from earlier work"}, "[4]": {"details": "risk phrase code R43 or H317; cited from earlier work"}}, "note": "Read-outs that look alike come from different tables or passages of the source.", "data": [{"molecule": "O=C(c1ccccc1)C1(O)CCCCC1", "note": "[1-Hydroxy-cyclohexyl phenyl ketone]", "values": [{"measurement": "skin sensitizing property", "setting": "[1]", "value": "None"}]}, {"molecule": "CCC(Cc1ccc(C)cc1)(C(=O)c1ccc(N2CCOCC2)cc1)N(C)C", "note": "(stereo not drawn) [2-Dimethylamino-2-(4-methylbenzyl)-1-(4-morpholine-4-yl-phenyl)butane-1-one]", "values": [{"measurement": "skin sensitizing property", "setting": "[1]", "value": "None"}]}, {"molecule": "C=C(C)C(=O)OCC(CO)OC(=O)C(=C)C", "note": "(stereo not drawn) [Glycerol dimethacrylate]", "values": [{"measurement": "SI measured by the LLNA test (stimulus index)", "setting": "[2]", "value": 1.2}]}, {"molecule": "C=C(C)C(=O)OCCCCCC", "note": "[n-Hexyl methacrylate]", "values": [{"measurement": "skin sensitizing property", "setting": "[3]", "value": "Negative"}]}, {"molecule": "C=C(C)C(=O)OCCCCC", "note": "[n-Pentyl methacrylate]", "values": [{"measurement": "skin sensitizing property", "setting": "[3]", "value": "Negative"}]}, {"molecule": "C=CC(=O)OC(C)(C)C", "note": "[t-Butyl acrylate]", "values": [{"measurement": "skin sensitizing property", "setting": "[4]", "value": "Positive"}]}, {"molecule": "C=C(C)C(=O)OC(C)(C)C", "note": "[t-Butyl methacrylate]", "values": [{"measurement": "skin sensitizing property", "setting": "[3]", "value": "Negative"}]}, {"molecule": "Caprolactone-modified dipentaerythritol hexaacrylate", "values": [{"measurement": "skin sensitizing property", "setting": "[1]", "value": "Negative"}]}, {"molecule": "Tricyclodecane dimethanol dimethacrylate", "values": [{"measurement": "SI measured by the LLNA test (stimulus index)", "setting": "[2]", "value": 1.3}]}]}
